According to article PMC6624652, “Compound Discovery and Structure-Activity Relationship Study of Neoantimycins Against Drug-Resistant Cancer Cells” (Frontiers in Chemistry, 2019):
Like-named read-outs stand apart in the source and are kept apart here.

Key:
[1] = system: taxol-resistant human colon cancer cell line HCT-8/T; assay: WST-8 (CCK-8) in vitro cytotoxicity test, HCT-8/T; type: cell-based; conditions: read-out: IC50, HCT-8/T
Protocol: (§1) A WST-8 colorimetric assay (Cell Counting Kit-8, Dojindo) was used to determine the cytotoxicity of the obtained compounds against four human cancer cell lines (human gastric cancer cell line SGC7901, cisplatin-resistant human gastric cancer cell line SGC7901/DDP, human colon cancer cell line HCT-8, and taxol-resistant human colon cancer cell line HCT-8/T) and noncancerous NCM460 colon cell line. Each cell line (100 μL, 5 × 10^4 cells/mL) was inoculated into standard 96-well, flat-bottom microplates, and incubated with DMEM (for HCT-8 and NCM460) or RPMI-1640 (for HCT-8/T, SGC7901, and SGC7901/DDP) medium for 24 h at 37°C in a humidified atmosphere containing 5% CO2. The attached cells were then incubated with serially diluted NATs (1-8). After continuous exposure to the compounds for 72 h, 10 μL CCK-8 solution was added. After 3 h of incubation at 37°C (5% CO2), the absorbance was measured at 450 nm using a microtiter plate reader (SpectraMax 190, Molecular Devices). Cisplatin and taxol (purity ≥ 98% Sigma, USA) were used as positive controls. All studies were performed in triplicate and the IC50 values were calculated using Prism software.

HT-29 cell line = system: HT-29 cell line; design: method as in Li et al., 2013; conditions: ref Li et al., 2013; cited from earlier work
[2] = system: human colon cancer cell line HCT-8; assay: WST-8 (CCK-8) in vitro cytotoxicity test, HCT-8; type: cell-based; conditions: read-out: IC50, HCT-8
Protocol: as §1

[3] = system: cisplatin-resistant human gastric cancer cell line SGC7901/DDP; assay: WST-8 (CCK-8) in vitro cytotoxicity test, SGC7901/DDP; type: cell-based; conditions: read-out: IC50, SGC7901/DDP
Protocol: as §1

[4] = system: human gastric cancer cell line SGC7901; assay: WST-8 (CCK-8) in vitro cytotoxicity test, SGC7901; type: cell-based; conditions: read-out: IC50, SGC7901
Protocol: as §1

HCT-8 cells [5] = assay: Apoptosis analysis by flow cytometry (Annexin V-FITC/PI); type: cell-based, human; conditions: NAT-A 0.5 μM, 72 h, untreated 7.2 ± 1.1%
Protocol: An Annexin V-FITC/PI Apoptosis Detection kit I (BD Pharmingen, San Diego, CA, USA) was adopted to examine the cell apoptosis according to the manufacturer's instructions. HCT-8 cells were cultured on a six-well plate (3 × 10^5 cells/well) and allowed to attach for 24 h before treated with NAT-A (0 and 0.5 μM) for 72 h. Then cells were harvested, washed with PBS and resuspended in 1 × binding buffer. Cell suspension (100 μL) was incubated with 5 μL FITC Annexin-V and 5 μL propidium iodide (PI) for 15 min in the dark. Following the incubation, 400 μL 1 × binding buffer was added into each sample before analysis using flow cytometry (Thermo Fisher Scientific, Eugene, Oregon, USA). The lower left section of fluorocytogram (Annexin V-, PI-) represents the normal cells, lower right section of fluorocytogram (Annexin V+, PI-) represents early apoptosis cells, and upper right section of fluorocytogram (Annexin V+, PI+) represents late apoptosis cells.

[6] = system: noncancerous NCM460 colon cell line; assay: WST-8 (CCK-8) in vitro cytotoxicity test, NCM460; type: cell-based; conditions: Homo sapiens, read-out: IC50, NCM460
Protocol: as §1

[7] = system: SGC7901, SGC7901/DDP, HCT-8 and HCT-8/T cell lines; assay: Cytotoxicity summarised over all four cancer cell lines; type: cell-based, human; conditions: for IC50: Homo sapiens, read-out: anti-proliferative activity (IC50 span) against all four cell lines; for fold higher activity than corresponding oxidized forms (3 and 4): in vitro, span over four cell lines; for fold better anti-proliferative activity in drug-resistant cell lines than in sensitive ones: span over compounds 3, 4, 7, 8
Protocol: as §1

HCT-8 cells [8] = assay: Cell morphology, DAPI staining; type: cell-based, human; conditions: 72 h
Protocol: HCT-8 cells were seeded in 12-well plates at a density of 1 × 10^5 cells per well. After overnight adherence, they were exposed to the indicated concentration of NAT-A for 72 h. After that, the cells were washed with PBS and fixed 4% paraformaldehyde for 30 min at room temperature. After washing with PBS, the cells were stained with DAPI (100 ng/mL) for 15 min in the dark and photographed using a fluorescence microscope (Nikon, Japan).

GRP78 = system: GRP78; design: method as in Izumikawa et al., 2007; conditions: ref Izumikawa et al., 2007; cited from earlier work
K562 cells = system: K562 cells; design: method as in Takahashi et al., 2001; conditions: ref Takahashi et al., 2001; cited from earlier work
KB cells = system: KB cells; design: method as in Takahashi et al., 2001; conditions: ref Takahashi et al., 2001; cited from earlier work
[9] = Homo sapiens, HCT-8, taxol-resistant, 72 h exposure, CCK-8, mean ± SD, n = 3
[10] = Homo sapiens, HCT-8, 72 h exposure, CCK-8, mean ± SD, n = 3
[11] = 72 h exposure, CCK-8, mean ± SD, n = 3

Structure (SMILES)	IC50 ([1]; Homo sapiens, HCT-8, 72 h) [nM]	IC50 ([2]; Homo sapiens, HCT-8, 72 h) [nM]	IC50 ([3]; Homo sapiens, SGC-7901, 72 h) [nM]	IC50 ([4]; Homo sapiens, SGC-7901, 72 h) [nM]	fold better anti-proliferative activity in drug-resistant cell lines than in sensitive ones [7]	other results
CC[C@H](C)[C@@H]1OC(=O)C(C)(C)[C@@H](O)[C@@H](Cc2ccccc2)OC(=O)[C@H](C(C)C)OC(=O)[C@@H](NC(=O)c2cccc(N)c2O)[C@@H](C)OC1=O [Compound 5, Neoantimycin D]	> 20000	> 20000	> 20000	10200	–	antiproliferative activity against HT-29 cell line (HT-29 cell line): hardly had any significant antiproliferative activity; cytotoxic activity (cell line not named at b4) (HT-29 cell line): did not show any cytotoxic activity
CC(C)[C@@H]1OC(=O)[C@@H](NC(=O)c2cccc(N)c2O)[C@@H](C)OC(=O)[C@H](C(C)C)OC(=O)C(C)(C)C(=O)[C@@H](Cc2ccccc2)OC1=O [Compound 2, Neoantimycin K]	> 20000	> 20000	> 20000	> 20000	–	–
CC(=O)O[C@H]1C(=O)[C@@]2(C)[C@H]([C@H](OC(=O)c3ccccc3)[C@]3(O)C[C@H](OC(=O)[C@H](O)[C@@H](NC(=O)c4ccccc4)c4ccccc4)C(C)=C1C3(C)C)[C@]1(OC(C)=O)CO[C@@H]1C[C@@H]2O [taxol, reference compound]	–	–	–	–	–	IC50 [1, 9]: > 20000 nM; IC50 [2, 10]: 2520 nM
CC[C@H](C)[C@@H]1OC(=O)C(C)(C)[C@@H](O)[C@@H](Cc2ccccc2)OC(=O)[C@H](C(C)C)OC(=O)[C@@H](NC(=O)c2cccc(NC=O)c2O)[C@@H](C)OC1=O [Compound 7, Neoantimycin A]	–	–	–	–	5.2~33.5 fold	percentage of apoptotic cells (Annexin V/PI) (HCT-8 cells [5]): 25.9 ± 0.7%; IC50 ([6]; NCM460, noncancerous colon cell, 72 h exposure, CCK-8, mean ± SD, n = 3): > 50000 nM; IC50 ([7]; span over compounds 3, 4, 7, 8 and four cell lines): 1.5 to 523 nM; fold higher activity than corresponding oxidized forms (3 and 4) [7]: 1.2~13 fold; IC50 [1, 9]: 2 ± 0.1 nM; nuclear morphology after DAPI staining (HCT-8 cells [8]): nuclear shrinkage, DNA fragments as well as chromatin condensation; IC50 [2, 10]: 66.9 ± 5.7 nM; IC50 ([3]; Homo sapiens, SGC-7901, cisplatin-resistant, 72 h exposure, CCK-8, mean ± SD, n = 3): 1.5 ± 0.1 nM; IC50 ([4]; Homo sapiens, SGC-7901, 72 h exposure, CCK-8, mean ± SD, n = 3): 24.5 ± 3.3 nM
CC(C)[C@@H]1OC(=O)[C@@H](NC(=O)c2cccc(NC=O)c2O)[C@@H](C)OC(=O)[C@H](C(C)C)OC(=O)C(C)(C)C(=O)[C@@H](Cc2ccccc2)OC1=O [Compound 4, Neoantimycin I]	32.6 ± 4.2	233 ± 20.1	15.7 ± 1.6	179 ± 18.3	5.2~33.5 fold	IC50 ([6]; NCM460, 72 h): > 50000 nM; IC50 [7]: 1.5 to 523 nM
CC[C@H](C)[C@@H]1OC(=O)C(C)(C)C(=O)[C@@H](Cc2ccccc2)OC(=O)[C@H](C(C)C)OC(=O)[C@@H](NC(=O)c2cccc(N)c2O)[C@@H](C)OC1=O [Compound 1, Neoantimycin J]	> 20000	> 20000	> 20000	> 20000	–	–
CC[C@H](C)[C@@H]1OC(=O)C(C)(C)[C@@H](O)[C@@H](Cc2ccccc2)OC(=O)[C@H](C)OC(=O)[C@@H](NC(=O)c2cccc(N)c2O)[C@H](C)OC1=O [JBIR-05]	–	–	–	–	–	expression of GRP78 (GRP78): inhibited the expression of GRP78
CC(C)[C@@H]1OC(=O)[C@@H](NC(=O)c2cccc(N)c2O)[C@@H](C)OC(=O)[C@H](C(C)C)OC(=O)C(C)(C)[C@@H](O)[C@@H](Cc2ccccc2)OC1=O [Compound 6, Neoantimycin E]	> 20000	13100	> 20000	1770	–	antiproliferative activity against HT-29 cell line (HT-29 cell line): hardly had any significant antiproliferative activity
CCC(C)C1OC(=O)C(C)(C)C(O)C(Cc2ccccc2)OC(=O)C(C)OC(=O)C(NC(=O)c2cccc(NC=O)c2O)C(C)OC1=O (stereo not shown) [SW-163 A]	–	–	–	–	–	cytotoxicity against K562 cells (K562 cells): no cytotoxicity; cytotoxicity against KB cells (KB cells): no cytotoxicity
N.N.[Cl][Pt][Cl] [cisplatin, reference compound]	–	–	–	–	–	IC50 ([1]; taxol-resistant, 72 h exposure, CCK-8, mean ± SD, n = 3): > 20000 nM; IC50 [2, 11]: 9490 nM; IC50 ([3]; cisplatin-resistant, 72 h exposure, CCK-8, mean ± SD, n = 3): 5670 nM; IC50 [4, 11]: 2560 nM
CC[C@H](C)[C@@H]1OC(=O)C(C)(C)C(=O)[C@@H](Cc2ccccc2)OC(=O)[C@H](C(C)C)OC(=O)[C@@H](NC(=O)c2cccc(NC=O)c2O)[C@@H](C)OC1=O [Compound 3, Neoantimycin H]	26.6 ± 1.5	523 ± 104	12.2 ± 4.6	104 ± 22.7	5.2~33.5 fold	IC50 ([6]; NCM460, 72 h): 115 ± 18.7 nM; IC50 [7]: 1.5 to 523 nM
CC(C)[C@@H]1OC(=O)[C@@H](NC(=O)c2cccc(NC=O)c2O)[C@@H](C)OC(=O)[C@H](C(C)C)OC(=O)C(C)(C)[C@@H](O)[C@@H](Cc2ccccc2)OC1=O [Compound 8, Neoantimycin F]	26.1 ± 0.1	136 ± 18.2	6.4 ± 0.5	98.5 ± 32.6	5.2~33.5 fold	IC50 ([6]; NCM460, 72 h): > 50000 nM; IC50 [7]: 1.5 to 523 nM; fold higher activity than corresponding oxidized forms (3 and 4) [7]: 1.2~13 fold; antiproliferative activity against HT-29 cell line (HT-29 cell line): hardly had any significant antiproliferative activity
